In US11629192B2, “Methods and pharmaceutical compositions for the treatment of diseases mediated by the NRP-1/OBR complex signaling pathway” (INSERM (Institut National de la Sante et de la Recherche …, priority 2014, dated 2023):
“Also recorded” adds a separate entry of the source.

Legend:
MDA-MB-231 cells = assay: MDA-MB-231 cell migration / transmigration through insert; type: cell-based, human
Excerpt: (§1) FIG. 5. NRP-1, OBR and leptin interactions confirmation using a Bio-Layer Interferometry (BLI) technology (fortebio.com/bli-technology.html): A-Leptin (OB) interaction to OBR is used as a positive control. Human neuropilin-1 (hNRP-1) interact with human OBR with a high affinity and specifically with human leptin (hOB) but not with murine leptin (mOB). VEGF165 binding to hNRP-1 is used as a positive control. B-Leptin and Avastin association increases MDA-MB231 cells transmigration through […] pore Insert. Avastin treatment may prevent a negative feedback control by VEGF of the pro-angiogenic signaling pathway of Leptin. VEGF binds to OBR which confirms our hypothesis that should be more investigated.
First MBA-MB-231 and T47D breast cancer cells line were selected for their high and undetectable NRP-1 expression respectively and the expression of Leptin receptor (OBR). In order to investigate NRP-1 and Leptin association in breast cancer cell line migration, we proceeded to NRP-1 expression silencing in MDA-MB-231 using either siRNA or shRNA approaches or NRP-1 overexpression in T47D. […] In contrast Leptin induced MDA-MB-231 migration that was decreased in siNRP-1 conditions. The in vitro data were confirmed in vivo by MDA-MB-231 and T47D xenografts in Nude mice. Modulation of NRP-1 expression either by shRNA silencing in MDA-MB-231 or by overexpression in T47D induced an increase of proliferation and a decrease of lymph node infiltration by MDA-MB-231-shNRP-1 and a decrease of proliferation and an increase of lymph node infiltration by T47D-NRP-1-RFP in mice treated with Leptin.
Leptin induced in vitro MDA-MB-231 migration that was decreased by NRP-1 repression using siRNA. Lel Xu et al have reported a direct evidence of NRP-1 up-regulation in tumors treated by anti-VEGF (Bevacizumab). […] This observation can be a first explanation of breast cancer therapy failure (increase of Progression survival while decreasing overall survival) by Bevacizumad and that was revoked by the FDA (Food and Drugs Administration, US).

NRP-1/OBR complex = NRP-1/OBR complex detection by Duolink Proximity Ligation Assay in MDA-MB-231 cells; type: cell-based, human; conditions: Leptin stimulation compared to serum starved and unstimulated cells
Excerpt: FIG. 2A-E. NRP-1/OBR complex is dependent of the activity of Protein-kinase CK2: NRP-1 and OBR are both a substrate of the holoenzyme CK2: In vitro phosphorylation of the recombinant full length NRP-1 (A) and the length OBR (B) indicate that the CK2β subunit is indispensable for the CK2 activity. C. Detection of the NRP-1 and CK2β subunit interaction: By using the PLA technology, the in vitro data showing the implication of CK2β subunit in the phosphorylation of NRP-1 by CK2 are in part confirmed in MDA-MB231 cells by the detection of CK2β interaction with NRP-1 as indicated by the duolink (white dot). […] E. inhibition of the NRP-1/OBR by the simultaneous CK2α and CK2α′ expression silencing using siRNA that confirms the CK2 implication In the NRP-1/OBR complex formation and nuclear localization.
To confirm a direct association of NRP-1 and Leptin in breast cancer cell migration, we investigated the NRP-1 and OBR interaction by using proximity ligation assay technology (Duolink) in MDA-MB-231 and in T47D-NRP-1. Since OBR is a member of the class I cytokine receptor family, we asked the question if the formation of the complex NRP-1/OBR can or not be modulated by Leptin. This question was investigated endogenously in MDA-MB-231 or by transient transfection of T47D either by NRP-1 or by NRP-1/OBR or OBR alone. After 24 h of transfection, cells were serum starved for 16 h then stimulated with Leptin (10 nM). After 3 h, the stimulation was stopped by removing the medium, cells was first washed then fixed and NRP-1/OBR complex formation was analyzed by Duolink in situ Proximity Ligation Assay (PLA) and by confocal microscopy detection. Co-localization was analyzed using JACoP (ImageJ; National Institutes of Health, Bethesda, Md.) software. Co-localization between molecules was indicated by a positive Pearson coefficient (r). First, the expression of NRP-1 in transfected T47D was confirmed by RT-PCR. NRP-1 forms a complex with endogenous OBR as it is shown by the Duolink detection as red dot in cells transfected with pcDNA3-NRP-1. The Duolink signal increased in the T47D co-transfected with NRP-1 and OBR. The Duolink signals in T47D transfected with either the empty vector pcDNA3 or with the OBR expressing vector were similar. The same results are observed in MDA-MB-231. […] By using subcellular protein fractionation kit, NRP-1 and OBR localization in cytoplasmic (C), membrane (M), in the total nuclear extract (N) or in soluble nuclear (SN) and chromatin bound fractions (CB) was analyzed by western blotting either in total lysate or after coimmunoprecipitation. The purity of fraction was assessed by the detection of specific proteins of each fraction such as Hsp90 for the C fraction, SP1 and HDAC2 for the SN and CB fractions and specifically the Calreticulin for endoplasmic reticulum (ER) in order to detect any contamination by the ER membrane fraction in the nuclear fractions. As suspected, OBR was coimmunoprecipitated with NRP-1 in the cytoplasmic (C) and in the nuclear fraction (N) of MDA-MB-231 but not in T47D. As well as Phosphorylated OBR (P-OBR), NRP-1 was detected in cytoplasmic fraction and in nuclear fractions SN and CB of 16 h serum starved MDA-MB-231 and stimulated with 10 nM of Leptin during 3 h at 37° C. The P-OBR and NRP-1 coimmunoprecipitated in the nuclear fractions, increasing with Leptin stimulation as observed by confocal microscopy.
As attempted, NRP-1/OBR complex was detected by confocal microscopy after by Duolink in situ Proximity Ligation Assay (PLA) in MDA-MB-231 stimulated with Leptin (10 nM). This detection was also observed in MDA-MB-231-shGFP but very less in MDA-MB-231-shNRP-1 confirming NRP-1 association with OBR.

NRP-1 = NRP-1 (Homo sapiens, UniProt O14786); assay: Direct binding of Leptin to NRP-1 by HTRF and confocal microscopy
Excerpt: NRP-1 has been reported to bind directly VEGF increasing thus the binding affinity of VEGF to its receptor VEGFR2 […] and Sema3A enabling thus its binding to Plexin 3A. Our study led us to highlight a new mechanism of NRP-1 function. […] NRP-1 repression by siNRP-1 decreased the BRET signal and OBR oligomerization.

[1] = target: Human neuropilin-1 (hNRP-1) (Homo sapiens, UniProt O14786); assay: Bio-Layer Interferometry (BLI) interaction with hNRP-1; type: binding
Excerpt: as §1

Substance: Leptin: small non glycosylated protein, ligand of OBR
- MDA-MB-231 migration induced by Bevacizumab, effect of Leptin (MDA-MB-231 cells; 10 μg/ml of Bevacizumab plus Leptin): increased
- MDA-MB-231 migration (MDA-MB-231 cells; in vitro, Leptin alone): increased; also recorded: induced
- direct interaction between NRP-1 and OBR (Duolink PLA) (NRP-1/OBR complex): takes place under Leptin stimulation
- direct binding to NRP-1 (NRP-1): unable to bind directly
- interaction with hNRP-1 [1]: interact
